Data: PubChem BioAssay AID2060610 (Molecular Pharmacology Branch, DTP, NCI, 2025)
Where “and” joins values, the source holds several entries; their conditions need not be identical. Equal entries are not always repeated.

Tested on: 616215-338-R-J1-PDC complex spheroids, viability % test/control
Experiment: Anticancer human tumor 616215-338-R-J1-PDC patient-derived colon adenocarcinoma cell line growth inhibition [CLK]
Conditions: for viability, T/C: stronger effect = lower value
Procedure, shortened: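 Multi-cell-type spheroids combined patient-derived tumor cells with HUVEC endothelial cells and human mesenchymal stem cells. Paired agents were dosed in half-log steps down from about clinical Cmax, or from 10 microM where Cmax was unknown.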

[1] = curve of first compound, second compound 0.0316 µM
[2] = curve of first compound, second compound 0.1 µM
[3] = curve of first compound, second compound 0.316 µM
[4] = curve of first compound, second compound 1 µM
[5] = curve of first compound, second compound 3.16 µM
[6] = curve of first compound, second compound 10 µM
[7] = second compound 0.0316 µM, first compound 0.0316 µM
[8] = second compound 0.0316 µM, first compound 0.1 µM
[9] = second compound 0.0316 µM, first compound 0.316 µM
[10] = second compound 0.0316 µM, first compound 1 µM
[11] = second compound 0.0316 µM, first compound 3.16 µM
[12] = second compound 0.0316 µM, first compound 10 µM
[13] = second compound 0.1 µM, first compound 0.0316 µM
[14] = second compound 0.1 µM, first compound 0.1 µM
[15] = second compound 0.1 µM, first compound 0.316 µM
[16] = second compound 0.1 µM, first compound 1 µM
[17] = second compound 0.1 µM, first compound 3.16 µM
[18] = second compound 0.1 µM, first compound 10 µM
[19] = second compound 0.316 µM, first compound 0.0316 µM
[20] = second compound 0.316 µM, first compound 0.1 µM
[21] = second compound 0.316 µM, first compound 0.316 µM
[22] = second compound 0.316 µM, first compound 1 µM
[23] = second compound 0.316 µM, first compound 3.16 µM
[24] = second compound 0.316 µM, first compound 10 µM
[25] = second compound 1 µM, first compound 0.0316 µM
[26] = second compound 1 µM, first compound 0.1 µM
[27] = second compound 1 µM, first compound 0.316 µM
[28] = second compound 1 µM, first compound 1 µM
[29] = second compound 1 µM, first compound 3.16 µM
[30] = second compound 1 µM, first compound 10 µM
[31] = second compound 3.16 µM, first compound 0.0316 µM
[32] = second compound 3.16 µM, first compound 0.1 µM
[33] = second compound 3.16 µM, first compound 0.316 µM
[34] = second compound 3.16 µM, first compound 1 µM
[35] = second compound 3.16 µM, first compound 3.16 µM
[36] = second compound 3.16 µM, first compound 10 µM
[37] = second compound 10 µM, first compound 0.0316 µM
[38] = second compound 10 µM, first compound 0.1 µM
[39] = second compound 10 µM, first compound 0.316 µM
[40] = second compound 10 µM, first compound 1 µM
[41] = second compound 10 µM, first compound 3.16 µM
[42] = second compound 10 µM, first compound 10 µM
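Further: spheroids exposed to agents for 7 days.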
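Wherever viability, T/C is given: 100% = DMSO vehicle wells.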

Question: `CC(Nc1ccc2c(c1)OCCn1cc(N3C(=O)OCC3C(F)F)nc1-2)C(N)=O` (stereo unspecified) + CNC(=O)c1ccc(Nc2nc(OC3CCCC3)c3c(-c4ccc5nc(C)oc5c4)c[nH]c3n2)c(OC)c1 was tested. Which IC50 [1] did it give?
Answer: The IC50 was greater than 10 µM.

Question: What about the IC50 [2] of the same compound?
Answer: The IC50 was 3.81 µM.

Question: And the IC50 [3]?
Answer: Its IC50 is less than 0.0316 µM.

Question: And the IC50 [4]?
Answer: The IC50 was less than 0.0316 µM.

Question: What about the IC50 [5] of the same compound?
Answer: The IC50 was less than 0.0316 µM.

Question: What about the IC50 [6] of the same compound?
Answer: The IC50 was less than 0.0316 µM.

Question: What about the viability, T/C [7] of the same compound?
Answer: Its viability, T/C is 95.8%.

Question: What about the viability, T/C [8] of the same compound?
Answer: Its viability, T/C is 106%.

Question: What about the viability, T/C [9] of the same compound?
Answer: The viability, T/C was 100%.

Question: What about the viability, T/C [10] of the same compound?
Answer: The viability, T/C was 104%.

Question: And the viability, T/C [11]?
Answer: Its viability, T/C is 104%.

Question: And the viability, T/C [12]?
Answer: Its viability, T/C is 90.3%.

Question: And the viability, T/C [13]?
Answer: Its viability, T/C is 52.5%.

Question: What about the viability, T/C [14] of the same compound?
Answer: Its viability, T/C is 65.9%.

Question: And the viability, T/C [15]?
Answer: Its viability, T/C is 51.7%.

Question: And the viability, T/C [16]?
Answer: Its viability, T/C is 56.2%.

Question: What about the viability, T/C [17] of the same compound?
Answer: Its viability, T/C is 51.5%.

Question: What about the viability, T/C [18] of the same compound?
Answer: The viability, T/C was 42.1%.

Question: And the viability, T/C [19]?
Answer: The viability, T/C was 38.8%.

Question: What about the viability, T/C [20] of the same compound?
Answer: Its viability, T/C is 34.2%.

Question: What about the viability, T/C [21] of the same compound?
Answer: Its viability, T/C is 37.6%.

Question: What about the viability, T/C [22] of the same compound?
Answer: The viability, T/C was 25.4%.

Question: What about the viability, T/C [23] of the same compound?
Answer: Its viability, T/C is 26.1%.

Question: What about the viability, T/C [24] of the same compound?
Answer: The viability, T/C was 21.9%.

Question: What about the viability, T/C [25] of the same compound?
Answer: Its viability, T/C is 33%.

Question: And the viability, T/C [26]?
Answer: Its viability, T/C is 32.5%.

Question: And the viability, T/C [27]?
Answer: The viability, T/C was 26.4%.

Question: And the viability, T/C [28]?
Answer: The viability, T/C was 23.3%.

Question: And the viability, T/C [29]?
Answer: The viability, T/C was 16.4%.

Question: And the viability, T/C [30]?
Answer: Its viability, T/C is 14.8%.

Question: And the viability, T/C [31]?
Answer: The viability, T/C was 35.2%.

Question: And the viability, T/C [32]?
Answer: The viability, T/C was 25.9%.

Question: What about the viability, T/C [33] of the same compound?
Answer: Its viability, T/C is 21.7%.

Question: What about the viability, T/C [34] of the same compound?
Answer: The viability, T/C was 17.4%.

Question: And the viability, T/C [35]?
Answer: The viability, T/C was 17%.

Question: And the viability, T/C [36]?
Answer: The viability, T/C was 12.4%.

Question: What about the viability, T/C [37] of the same compound?
Answer: Its viability, T/C is 28%.

Question: What about the viability, T/C [38] of the same compound?
Answer: Its viability, T/C is 28.8%.

Question: And the viability, T/C [39]?
Answer: Its viability, T/C is 21.9%.

Question: And the viability, T/C [40]?
Answer: Its viability, T/C is 17.7%.

Question: What about the viability, T/C [41] of the same compound?
Answer: The viability, T/C was 17%.

Question: And the viability, T/C [42]?
Answer: Its viability, T/C is 12.8%.

Question: How did the IC50 [1] turn out when `CCCS(=O)(=O)Nc1ccc(F)c(C(=O)c2c[nH]c3ncc(-c4ccc(Cl)cc4)cc23)c1F` + CNC(=O)c1ccc(Nc2nc(OC3CCCC3)c3c(-c4ccc5nc(C)oc5c4)c[nH]c3n2)c(OC)c1 was run?
Answer: Its IC50 is 6.93 µM.

Question: What about the IC50 [2] of the same compound?
Answer: The IC50 was 0.698 µM.

Question: And the IC50 [3]?
Answer: Its IC50 is less than 0.0316 µM.

Question: What about the IC50 [4] of the same compound?
Answer: The IC50 was less than 0.0316 µM.

Question: What about the IC50 [5] of the same compound?
Answer: Its IC50 is less than 0.0316 µM.

Question: And the IC50 [6]?
Answer: Its IC50 is less than 0.0316 µM.

Question: And the viability, T/C [7]?
Answer: The viability, T/C was 94.6%.

Question: What about the viability, T/C [8] of the same compound?
Answer: The viability, T/C was 102%.

Question: And the viability, T/C [9]?
Answer: Its viability, T/C is 98.9%.

Question: And the viability, T/C [10]?
Answer: The viability, T/C was 89.9%.

Question: What about the viability, T/C [11] of the same compound?
Answer: Its viability, T/C is 93.8%.

Question: What about the viability, T/C [12] of the same compound?
Answer: The viability, T/C was 29.6%.

Question: What about the viability, T/C [13] of the same compound?
Answer: Its viability, T/C is 55%.

Question: And the viability, T/C [14]?
Answer: The viability, T/C was 62.2%.

Question: And the viability, T/C [15]?
Answer: Its viability, T/C is 44.3%.

Question: And the viability, T/C [16]?
Answer: The viability, T/C was 53.6%.

Question: And the viability, T/C [17]?
Answer: Its viability, T/C is 34.6%.

Question: And the viability, T/C [18]?
Answer: The viability, T/C was 13%.

Question: And the viability, T/C [19]?
Answer: The viability, T/C was 42.4%.

Question: And the viability, T/C [20]?
Answer: Its viability, T/C is 37.1%.

Question: And the viability, T/C [21]?
Answer: The viability, T/C was 39.7%.

Question: And the viability, T/C [22]?
Answer: Its viability, T/C is 41.5%.

Question: And the viability, T/C [23]?
Answer: Its viability, T/C is 27%.

Question: And the viability, T/C [24]?
Answer: The viability, T/C was 14.8%.

Question: What about the viability, T/C [25] of the same compound?
Answer: The viability, T/C was 43.8%.

Question: What about the viability, T/C [26] of the same compound?
Answer: The viability, T/C was 38.8%.

Question: What about the viability, T/C [27] of the same compound?
Answer: Its viability, T/C is 42.3%.

Question: And the viability, T/C [28]?
Answer: Its viability, T/C is 30.9%.

Question: And the viability, T/C [29]?
Answer: Its viability, T/C is 27.2%.

Question: And the viability, T/C [30]?
Answer: Its viability, T/C is 11.6%.

Question: What about the viability, T/C [31] of the same compound?
Answer: Its viability, T/C is 41.4%.

Question: What about the viability, T/C [32] of the same compound?
Answer: The viability, T/C was 44.3%.

Question: What about the viability, T/C [33] of the same compound?
Answer: Its viability, T/C is 41.4%.

Question: What about the viability, T/C [34] of the same compound?
Answer: Its viability, T/C is 31.6%.

Question: And the viability, T/C [35]?
Answer: Its viability, T/C is 22%.

Question: What about the viability, T/C [36] of the same compound?
Answer: The viability, T/C was 10.1%.

Question: What about the viability, T/C [37] of the same compound?
Answer: Its viability, T/C is 40.4%.

Question: And the viability, T/C [38]?
Answer: Its viability, T/C is 34.4%.

Question: And the viability, T/C [39]?
Answer: The viability, T/C was 38.3%.

Question: What about the viability, T/C [40] of the same compound?
Answer: The viability, T/C was 27.9%.

Question: What about the viability, T/C [41] of the same compound?
Answer: Its viability, T/C is 21.4%.

Question: What about the viability, T/C [42] of the same compound?
Answer: The viability, T/C was 8.93%.

Question: How did the viability, T/C (compound 0.0316 µM) turn out when `C=C(F)C(=O)N1CCN(c2nc(OCC3CCCN3C)nc3c2CCN(c2cccc4cccc(Cl)c24)C3)CC1CC#N` (stereo unspecified) was run?
Answer: The viability, T/C was 101% and 104%.

Question: And the viability, T/C (compound 0.1 µM)?
Answer: Its viability, T/C is 99.9% and 107%.

Question: And the viability, T/C (compound 0.316 µM)?
Answer: The viability, T/C was 96.3% and 110%.

Question: What about the viability, T/C (compound 1 µM) of the same compound?
Answer: Its viability, T/C is 93.6% and 106%.

Question: What about the viability, T/C (compound 3.16 µM) of the same compound?
Answer: Its viability, T/C is 116% and 114%.

Question: And the viability, T/C (compound 10 µM)?
Answer: The viability, T/C was 9.79% and 0.24%.

Question: What about the IC50 (curve of compound) of the same compound?
Answer: The IC50 was 6.03 µM and 5.89 µM.
